# Experimental data as given in patent US20050037033A1, “Microbicidal compositions and methods and use” (priority 2003, published 2005).
# Where two headings read alike, the source gives them in different places.
# Experiments:
# Eubact lentum = assay: Anaerobe inhibition assay; assay type: cell-based; details: 2 strains, read-out: Minimum Inhibitory Concentrations (MICs)
# Enterococcus faecalis = assay: Aerobe inhibition assay; assay type: cell-based; details: 1 strain, read-out: Minimum Inhibitory Concentrations (MICs)
# Method: (§1) The aerobic organisms were suspended into saline to the turbidity of the 0.5 McFarland standard, diluted 1:10, pipetted into the wells of the Steers replicator head, and stamped onto the Mueller Hinton agar plates containing the serial dilutions of the antimicrobials.
# (§2) The anaerobes were incubated in an anaerobic chamber at 37° C. for 2 days; aerobes were incubated in ambient air at 36° C. for 20h.
# Strep agalactiae = assay: Aerobe inhibition assay; assay type: cell-based; details: 2 strains
# Method: as §1, §2
# E. coli = assay: Aerobe inhibition assay; assay type: cell-based; details: 2 strains
# Method: as §1, §2
# Listeria monocytogenes = assay: Aerobe inhibition assay; assay type: cell-based; details: 2 strains, read-out: Minimum Inhibitory Concentrations (MICs)
# Method: as §1, §2
# K1 pneumoniae = assay: Aerobe inhibition assay; assay type: cell-based; details: 2 strains
# Method: as §1, §2
# Enterococcus faecium = assay: Aerobe inhibition assay; assay type: cell-based; details: 1 strain, read-out: Minimum Inhibitory Concentrations (MICs)
# Method: as §1, §2
# Pseudo fluorescens = assay: Aerobe inhibition assay; assay type: cell-based; details: 1 strain, read-out: Minimum Inhibitory Concentrations (MICs)
# Method: as §1, §2
# Strep pyogenes = assay: Aerobe inhibition assay; assay type: cell-based; details: 2 strains, read-out: Minimum Inhibitory Concentrations (MICs)
# Method: as §1, §2
# Pseudo aerug = assay: Aerobe inhibition assay; assay type: cell-based; details: 1 strain, read-out: Minimum Inhibitory Concentrations (MICs)
# Method: as §1, §2
# C. albicans = assay: Aerobe inhibition assay; assay type: cell-based; details: Candida albicans; 2 strains; read-out: Minimum Inhibitory Concentrations (MICs)
# Method: as §1, §2
# HSV-2 [1] = assay: HSV-2 virucidal assay; assay type: cell-based; details: Human alphaherpesvirus 2, 1 h, at 400 μg/ml (highest concentration tested); 60 min at 37° C.
# Method: The virucidal activities of ciclopiroxolamine against HSV-2 were tested by mixing various concentrations of the test compound with 2×10^5 PFU of HSV-2, respectively, and incubating at 37° C. for 60 min. The culture medium was included as a […] control. At the end of incubation, the mixtures were diluted 1 in 1000 with culture medium. The infectivity of treated virus was determined by a standard viral plaque assay. Briefly, confluent Vero cells were washed with PBS and subsequently infected with 1 ml of treated mixture at 37° C. for 1 h. After viral inoculum was removed, the infected cells were washed with PBS and overlaid with 0.5% methylcellulose in culture medium. The infected cells were incubated at 37° C. for 2 days to allow the plaques to develop.
# [2] = system: N. gonorrheae, strain ms11a; assay: Neisseria gonorrhea inhibition assay; assay type: cell-based; details: gonococcal agar, overnight, colonies counted
# Method: Compound was incorporated into gonococcal agar, the agar/agent mixture was poured on culture dishes and inoculated with N. gonorrheae, strain ms11a (10 μl of each dilution: 10^−1 to 10^−5 of a starting 0.5 Mcfarland solution which is equal to 1.5×10^8 colony forming units (cfu)/ml). The plates were incubated overnight (20-22 hours) and the colonies counted.
# [3] = system: Bacteroides thetaiotaomicron; assay: Anaerobe inhibition assay; assay type: cell-based; details: 1 strain, read-out: Minimum Inhibitory Concentrations (MICs)
# Method: Working in an anaerobic chamber, the anaerobes were suspended into brucella broth to the turbidity of the 0.5 McFarland standard and pipetted into the wells of the Steers replicator head, removed from the chamber and stamped onto the supplemented Brucella agar plates containing the serial dilutions of the antimicrobials and the growth control plates. The final inoculum was 10^5 cfu/spot.
# as §2
# [4] = system: HIV-1 strain BaL (R5 strain); assay: Viral entry/binding inhibition assay (VBI), strain BaL; assay type: cell-based; details: Human immunodeficiency virus 1, Series 2, P4-R5 cells, 2 hour incubation, read-out: 50% Effective Concentrations (IC50)
# Method: Viral entry inhibition assay (VBI): Cell-free HIV-1 (strain III-B: X4 strain; or strain BaL: R5 strain) was incubated with compound and P4-R5 cells for 2 hours at 37° C., followed by washing and 48 hour incubation.
# Prevotella disiens = assay: Anaerobe inhibition assay; assay type: cell-based; details: 2 strains, read-out: Minimum Inhibitory Concentrations (MICs)
# [5] = system: Prevotella melaninogenica; assay: Anaerobe inhibition assay; assay type: cell-based; details: 2 strains, read-out: Minimum Inhibitory Concentrations (MICs)
# Peptostrep anaerobius = assay: Anaerobe inhibition assay; assay type: cell-based; details: 1 strain, read-out: Minimum Inhibitory Concentrations (MICs)
# Mobiluncus curtisii = assay: Anaerobe inhibition assay; assay type: cell-based; details: 2 strains, read-out: Minimum Inhibitory Concentrations (MICs)
# spermatozoa = assay: Sperm immobilization assay; assay type: cell-based
# Method: To assess sperm-immobilizing activity, compounds were incubated with sperm for 30 seconds in two fold serial dilutions. Those dilutions that immobilized all screened spermatozoa were further diluted several times in buffer and incubated at 37° C., 5% CO2, for 1 h, to verify any possible recovery of motility. Only those dilutions (compound concentrations) that immobilized all spermatozoa with no recovery of motility were considered “positive” and used to calculate the compound's minimum effective concentration (MEC).
# [6] = system: C. trachomatis Serovar E elementary bodies; assay: Chlamydia trachomatis inhibition assay; assay type: cell-based
# Method: C. trachomatis Serovar E elementary bodies ([…]; 10^4 IFU) were incubated for 4 hours on ice with compound, the mixture was inoculated into HeLa cell monolayers, and incubated for 1 hour. The inoculum was removed, the medium changed and the cells incubated overnight (20-22 hours). The cells were removed, fixed, permeabilized, and the infected cells detected by fluorescently tagged antibody and flow cytometry.
# Prevotella bivia = assay: Anaerobe inhibition assay; assay type: cell-based; details: 2 strains, read-out: Minimum Inhibitory Concentrations (MICs)
# Peptostrep tetradius = assay: Anaerobe inhibition assay; assay type: cell-based; details: 1 strain, read-out: Minimum Inhibitory Concentrations (MICs)
# Bacteroides fragilis = assay: Anaerobe inhibition assay; assay type: cell-based; details: 1 strain, read-out: Minimum Inhibitory Concentrations (MICs)
# HSV-2 [7] = assay: HSV-2 viral binding inhibition assay; assay type: cell-based; details: Human alphaherpesvirus 2; Vero cells, plaque assay
# Method: Confluent Vero cells were incubated with different concentrations of ciclopiroxolamine at 37° C. for 1 hour. 200 pfu of HSV-2 were then added to the cells in the presence of test compound and the cells were incubated at 37° C. for 1 hour. The infected cells were washed with PBS and overlaid with methylcellulose (no drug) for a plaque assay.
# C. glabrata = assay: Aerobe inhibition assay; assay type: cell-based, Candida glabrata; details: Nakaseomyces glabratus; 3 strains; read-out: Minimum Inhibitory Concentrations (MICs)
# Method: as §1, §2
# [8] = read-out: Minimum Inhibitory Concentrations (MICs)
compound,measurement,setting,value
"Cc1cc(C2CCCCC2)n(O)c(=O)c1.NCCO [CO, 6-Cyclohexyl-1-hydroxy-4-methyl-2-(1H)-pyridone ethanolamine salt]",MIC,Eubact lentum,40 µg/mL
same,MIC,Enterococcus faecalis,80 µg/mL
same,Minimum Inhibitory Concentrations (MICs),Strep agalactiae,160 µg/mL
same,MIC,Strep agalactiae; [8],80 µg/mL
same,Minimum Inhibitory Concentrations (MICs),E. coli,80 µg/mL
same,MIC,"E. coli; Escherichia coli, read-out: Minimum Inhibitory Concentrations (MICs)",40 µg/mL
same,MIC,Listeria monocytogenes,40 µg/mL
same,Minimum Inhibitory Concentrations (MICs),K1 pneumoniae,80 µg/mL
same,MIC,K1 pneumoniae; [8],40 µg/mL
same,MIC,Enterococcus faecium,40 µg/mL
same,MIC,Pseudo fluorescens,160 µg/mL
same,MIC,Strep pyogenes,80 µg/mL
same,MIC,Pseudo aerug,80 µg/mL
same,MIC,C. albicans,20 µg/mL
same,inhibition at 400 µg/mL,HSV-2 [1],40%
same,IC50,[2],1 µg/mL
same,MIC,[3],40 µg/mL
same,IC50,[4],6.9 µg/mL
same,MIC,Prevotella disiens,40 µg/mL
same,MIC,[5],40 µg/mL
same,MIC,Peptostrep anaerobius,40 µg/mL
same,MIC,Mobiluncus curtisii,40 µg/mL
same,cytotoxicity towards spermatozoa,spermatozoa,very little cytotoxicity towards spermatozoa
same,"Sperm immobilization activity, MEC (minimum effective concentration)",spermatozoa; 30 seconds incubation with sperm,"MEC: 1,200-8,800 μg/ml"
same,IC50,[6],1600 µg/mL
same,IC50,"[6]; HeLa cell monolayers, flow cytometry",1630 µg/mL
same,MIC,Prevotella bivia,40 µg/mL
same,MIC,Peptostrep tetradius,40 µg/mL
same,MIC,Bacteroides fragilis,40 µg/mL
same,IC50,HSV-2 [7],153 µg/mL
same,MIC,C. glabrata,20 µg/mL
